What was measured:
Caspase-6 = target: T1, Caspase-6 (Homo sapiens, UniProt P55212); experiment: Inhibition of Caspase-6 activity (unknown origin) by FRET assay
T1 sequence (P55212 whole entry): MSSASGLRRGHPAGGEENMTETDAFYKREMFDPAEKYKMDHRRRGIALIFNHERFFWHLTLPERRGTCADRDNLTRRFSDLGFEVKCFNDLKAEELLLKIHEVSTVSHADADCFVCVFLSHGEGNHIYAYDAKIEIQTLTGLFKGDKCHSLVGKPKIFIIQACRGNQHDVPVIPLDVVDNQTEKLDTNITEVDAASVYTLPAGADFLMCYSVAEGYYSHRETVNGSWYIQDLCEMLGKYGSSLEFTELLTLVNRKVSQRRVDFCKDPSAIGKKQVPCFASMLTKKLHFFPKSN

RNA = experiment: Binding affinity to CAG repeat RNA (unknown origin) assessed as dissociation constant; type: nucleic-acid assay
[1] = Inhibition of YFP aggregation in african green monkey COS-7 cells at 70 nM relative to control; type: functional; conditions: Chlorocebus aethiops
COS-7 = experiment: Cytotoxicity against african green monkey COS-7 cells assessed as reduction in cell growth; type: toxicity, cell-based; parameters: scale not given: the % may be the effect or the level left; conditions: chlorocebus aethiops
Huntingtin [2] = target: T2, Huntingtin (Homo sapiens, UniProt P42858); experiment: Inhibition of HTT (unknown origin) aggregation at 5 uM relative to control
Huntingtin [3] = target: T2, Huntingtin; experiment: Binding affinity to HTT (unknown origin) assessed as dissociation constant by surface plasmon resonance assay
Huntingtin [4] = target: T2, Huntingtin; experiment: Inhibition of HTT (unknown origin) by ELISA method

T2 sequence (P42858 whole entry): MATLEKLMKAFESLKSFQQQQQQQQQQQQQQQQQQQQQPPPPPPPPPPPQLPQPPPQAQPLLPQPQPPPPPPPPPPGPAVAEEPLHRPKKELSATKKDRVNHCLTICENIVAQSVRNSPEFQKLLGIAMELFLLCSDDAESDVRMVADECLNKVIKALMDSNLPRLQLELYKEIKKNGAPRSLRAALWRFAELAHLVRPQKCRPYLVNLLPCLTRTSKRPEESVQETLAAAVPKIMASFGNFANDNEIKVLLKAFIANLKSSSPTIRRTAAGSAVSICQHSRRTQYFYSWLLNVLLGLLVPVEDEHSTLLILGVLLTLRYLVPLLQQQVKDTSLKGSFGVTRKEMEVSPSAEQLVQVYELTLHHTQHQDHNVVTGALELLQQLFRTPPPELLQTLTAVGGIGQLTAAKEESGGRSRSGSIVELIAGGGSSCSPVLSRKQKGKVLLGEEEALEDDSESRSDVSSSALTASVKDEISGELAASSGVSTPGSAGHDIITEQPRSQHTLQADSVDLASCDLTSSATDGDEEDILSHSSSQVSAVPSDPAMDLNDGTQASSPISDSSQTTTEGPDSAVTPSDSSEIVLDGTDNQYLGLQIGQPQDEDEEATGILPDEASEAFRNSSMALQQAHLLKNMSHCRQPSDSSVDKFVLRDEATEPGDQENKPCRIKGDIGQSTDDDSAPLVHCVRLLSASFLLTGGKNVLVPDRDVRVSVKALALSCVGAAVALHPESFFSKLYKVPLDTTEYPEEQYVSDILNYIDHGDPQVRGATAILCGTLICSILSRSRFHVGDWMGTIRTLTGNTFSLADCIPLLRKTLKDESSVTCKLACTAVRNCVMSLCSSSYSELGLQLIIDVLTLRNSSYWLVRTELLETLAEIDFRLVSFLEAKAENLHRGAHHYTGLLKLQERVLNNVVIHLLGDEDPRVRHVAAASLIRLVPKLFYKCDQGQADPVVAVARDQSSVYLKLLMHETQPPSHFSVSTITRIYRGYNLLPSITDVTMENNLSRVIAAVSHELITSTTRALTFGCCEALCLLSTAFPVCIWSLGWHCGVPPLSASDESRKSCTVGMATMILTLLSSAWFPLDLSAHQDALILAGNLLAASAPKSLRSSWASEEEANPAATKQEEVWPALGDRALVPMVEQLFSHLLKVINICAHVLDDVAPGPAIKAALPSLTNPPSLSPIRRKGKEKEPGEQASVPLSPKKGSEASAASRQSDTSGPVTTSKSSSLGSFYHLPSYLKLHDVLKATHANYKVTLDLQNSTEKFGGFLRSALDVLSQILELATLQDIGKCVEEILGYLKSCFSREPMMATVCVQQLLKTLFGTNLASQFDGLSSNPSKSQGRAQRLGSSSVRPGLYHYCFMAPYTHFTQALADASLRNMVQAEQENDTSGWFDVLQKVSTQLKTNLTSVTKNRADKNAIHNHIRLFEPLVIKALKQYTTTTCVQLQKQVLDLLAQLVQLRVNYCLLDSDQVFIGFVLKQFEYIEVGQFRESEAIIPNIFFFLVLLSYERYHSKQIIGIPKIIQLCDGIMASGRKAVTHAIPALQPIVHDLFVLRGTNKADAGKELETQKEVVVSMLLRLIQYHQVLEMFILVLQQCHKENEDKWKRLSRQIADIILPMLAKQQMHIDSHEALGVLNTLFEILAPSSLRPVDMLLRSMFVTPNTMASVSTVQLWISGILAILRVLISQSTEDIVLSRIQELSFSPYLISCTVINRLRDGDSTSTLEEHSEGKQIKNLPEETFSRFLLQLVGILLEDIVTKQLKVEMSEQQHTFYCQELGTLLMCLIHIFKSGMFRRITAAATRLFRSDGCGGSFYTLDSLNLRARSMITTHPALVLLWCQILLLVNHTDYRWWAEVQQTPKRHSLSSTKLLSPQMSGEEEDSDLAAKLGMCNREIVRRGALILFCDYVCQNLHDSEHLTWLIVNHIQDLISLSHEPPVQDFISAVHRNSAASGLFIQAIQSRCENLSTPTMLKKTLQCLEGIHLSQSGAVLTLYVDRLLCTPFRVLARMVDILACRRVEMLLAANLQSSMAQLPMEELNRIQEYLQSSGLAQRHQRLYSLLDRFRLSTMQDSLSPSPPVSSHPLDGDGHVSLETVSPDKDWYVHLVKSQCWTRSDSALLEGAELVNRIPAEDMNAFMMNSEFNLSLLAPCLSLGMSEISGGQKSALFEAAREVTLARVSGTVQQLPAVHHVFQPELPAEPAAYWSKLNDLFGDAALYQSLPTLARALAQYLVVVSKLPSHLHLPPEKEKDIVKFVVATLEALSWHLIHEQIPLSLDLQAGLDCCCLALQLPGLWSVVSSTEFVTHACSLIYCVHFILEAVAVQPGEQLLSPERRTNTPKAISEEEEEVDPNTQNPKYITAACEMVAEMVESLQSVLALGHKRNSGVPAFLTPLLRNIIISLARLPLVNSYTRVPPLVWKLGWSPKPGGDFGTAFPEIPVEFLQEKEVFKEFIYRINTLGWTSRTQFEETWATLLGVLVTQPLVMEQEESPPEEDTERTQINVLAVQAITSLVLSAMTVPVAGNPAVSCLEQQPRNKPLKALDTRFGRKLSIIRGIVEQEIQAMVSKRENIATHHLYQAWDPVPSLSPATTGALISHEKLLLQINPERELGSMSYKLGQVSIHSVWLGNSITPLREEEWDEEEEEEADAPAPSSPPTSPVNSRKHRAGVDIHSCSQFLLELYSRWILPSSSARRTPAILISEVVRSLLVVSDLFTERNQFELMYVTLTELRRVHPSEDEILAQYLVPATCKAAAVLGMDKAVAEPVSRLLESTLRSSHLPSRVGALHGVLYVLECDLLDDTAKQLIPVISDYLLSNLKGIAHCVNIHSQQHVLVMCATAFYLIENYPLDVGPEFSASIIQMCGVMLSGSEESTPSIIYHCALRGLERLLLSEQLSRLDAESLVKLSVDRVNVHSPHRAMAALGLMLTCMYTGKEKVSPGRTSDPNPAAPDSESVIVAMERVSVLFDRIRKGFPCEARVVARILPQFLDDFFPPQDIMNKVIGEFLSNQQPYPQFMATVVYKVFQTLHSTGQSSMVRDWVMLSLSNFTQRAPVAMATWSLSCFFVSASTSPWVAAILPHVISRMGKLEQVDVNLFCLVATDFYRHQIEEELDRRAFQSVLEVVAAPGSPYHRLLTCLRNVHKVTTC

Substance: H-GRKKRRQRRRPPQSSEIVLDGTDN-OH
- IC50 (Caspase-6): 12.1 nM

Substance: H-DGKSKGIAYIEFK-OH
- Kd (RNA): 8.37 nM

Substance: H-WKWWPGIFDYGRKKRRQRRR-OH
- inhibition at 0.07 µM [1]: 81.2%

Substance: H-RQIKIWFQNRRMKWKKSNWKWWPGIFD-OH
- Activity (COS-7): 30.2%

Substance: H-MATLEKLMKAFESLKSF-OH
- inhibition (Huntingtin [2]): 20%

Substance: H-AEIRLVSKDGKSKGIAYIEFK-OH
- Kd (RNA): 660 nM

Substance: H-SNWKWWPGIFD-OH
- Kd (Huntingtin [3]): 5700 nM
- IC50 (Huntingtin [4]): 5000 nM

Substance: Ac-DGKSKGIAYIEFK-NH2
- Kd (RNA): 0.33 nM
